The text below walks through data of ChEMBL document CHEMBL3784924, “Identification of a 5-[3-phenyl-(2-cyclic-ether)-methylether]-4-aminopyrrolo[2,3-d]pyrimidine series of IGF-1R inhibitors” (Bioorg Med Chem Lett, 2016).

Data set [1] deals with Phosphatidylinositol 4,5-bisphosphate 3-kinase catalytic subunit alpha isoform (Homo sapiens, UniProt P42336). The experiment in a line: Inhibition of PI3K-alpha (unknown origin).
Data set [2] concerns the target Tyrosine-protein kinase JAK1 (Homo sapiens, UniProt P23458). The experiment in a line: Inhibition of Jak1 (unknown origin).
Data set [3] relates to Liver microsome. The data set can be described thus: Drug metabolism in human liver microsomes assessed as 3-(4-amino-7-((cis)-3-(azetidin-1-ylmethyl)cyclobutyl)-7H-pyrrolo[2,3-d]pyrimidin-5-yl)phenol formation by LC-MS/MS analysis. Type of data set: ADME. On the technique in general: Liver microsomes are a subcellular fraction often used to study metabolism.
For data set [4], the target named is Epidermal growth factor receptor (Homo sapiens, UniProt P00533). The data set can be described thus: Inhibition of Her1 (unknown origin).
Chain of Epidermal growth factor receptor (P00533 whole entry, canonical isoform): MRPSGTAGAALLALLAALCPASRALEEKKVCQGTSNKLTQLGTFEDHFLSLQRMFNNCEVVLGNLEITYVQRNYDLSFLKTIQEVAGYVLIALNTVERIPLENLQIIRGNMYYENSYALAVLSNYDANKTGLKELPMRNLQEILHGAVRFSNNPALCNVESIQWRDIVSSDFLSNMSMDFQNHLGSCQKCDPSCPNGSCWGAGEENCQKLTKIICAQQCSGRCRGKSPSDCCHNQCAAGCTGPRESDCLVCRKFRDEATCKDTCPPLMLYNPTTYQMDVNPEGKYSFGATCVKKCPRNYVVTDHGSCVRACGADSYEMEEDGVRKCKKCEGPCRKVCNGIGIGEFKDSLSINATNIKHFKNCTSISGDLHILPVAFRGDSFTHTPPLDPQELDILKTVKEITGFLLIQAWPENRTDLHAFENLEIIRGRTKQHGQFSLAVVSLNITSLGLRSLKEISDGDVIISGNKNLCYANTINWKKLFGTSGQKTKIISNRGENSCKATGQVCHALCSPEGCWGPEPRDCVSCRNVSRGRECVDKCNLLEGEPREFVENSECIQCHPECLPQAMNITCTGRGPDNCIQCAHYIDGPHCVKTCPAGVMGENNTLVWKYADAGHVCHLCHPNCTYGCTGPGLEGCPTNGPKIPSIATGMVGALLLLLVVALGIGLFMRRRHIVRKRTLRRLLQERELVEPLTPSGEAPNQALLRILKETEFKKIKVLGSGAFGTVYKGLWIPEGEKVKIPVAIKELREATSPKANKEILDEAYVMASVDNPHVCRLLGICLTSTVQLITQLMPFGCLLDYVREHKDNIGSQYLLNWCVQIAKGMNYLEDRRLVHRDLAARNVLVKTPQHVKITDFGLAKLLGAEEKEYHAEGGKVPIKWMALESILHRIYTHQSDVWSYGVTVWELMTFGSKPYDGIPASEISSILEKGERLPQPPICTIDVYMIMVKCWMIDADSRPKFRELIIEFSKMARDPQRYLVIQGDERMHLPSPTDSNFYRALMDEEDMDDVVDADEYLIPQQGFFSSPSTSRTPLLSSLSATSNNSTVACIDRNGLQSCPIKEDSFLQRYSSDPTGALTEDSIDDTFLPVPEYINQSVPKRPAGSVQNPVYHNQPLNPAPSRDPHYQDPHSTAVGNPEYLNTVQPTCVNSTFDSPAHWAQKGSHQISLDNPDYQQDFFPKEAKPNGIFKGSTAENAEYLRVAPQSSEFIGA
Data set [5] concerns the target Phosphatidylinositol 4,5-bisphosphate 3-kinase catalytic subunit beta isoform (Homo sapiens, UniProt P42338). The data set can be described thus: Inhibition of PI3K-beta (unknown origin).
Data set [6] concerns the target Voltage-gated inwardly rectifying potassium channel KCNH2 (Homo sapiens, UniProt Q12809). The data set can be described thus: Inhibition of human ERG by dofetilide binding assay.
Data set [7] deals with Insulin-like growth factor 1 receptor (Homo sapiens, UniProt P08069). The experiment in a line: Inhibition of IGF-1 receptor (unknown origin).
Chain of Insulin-like growth factor 1 receptor (P08069 31-736 limits assumed): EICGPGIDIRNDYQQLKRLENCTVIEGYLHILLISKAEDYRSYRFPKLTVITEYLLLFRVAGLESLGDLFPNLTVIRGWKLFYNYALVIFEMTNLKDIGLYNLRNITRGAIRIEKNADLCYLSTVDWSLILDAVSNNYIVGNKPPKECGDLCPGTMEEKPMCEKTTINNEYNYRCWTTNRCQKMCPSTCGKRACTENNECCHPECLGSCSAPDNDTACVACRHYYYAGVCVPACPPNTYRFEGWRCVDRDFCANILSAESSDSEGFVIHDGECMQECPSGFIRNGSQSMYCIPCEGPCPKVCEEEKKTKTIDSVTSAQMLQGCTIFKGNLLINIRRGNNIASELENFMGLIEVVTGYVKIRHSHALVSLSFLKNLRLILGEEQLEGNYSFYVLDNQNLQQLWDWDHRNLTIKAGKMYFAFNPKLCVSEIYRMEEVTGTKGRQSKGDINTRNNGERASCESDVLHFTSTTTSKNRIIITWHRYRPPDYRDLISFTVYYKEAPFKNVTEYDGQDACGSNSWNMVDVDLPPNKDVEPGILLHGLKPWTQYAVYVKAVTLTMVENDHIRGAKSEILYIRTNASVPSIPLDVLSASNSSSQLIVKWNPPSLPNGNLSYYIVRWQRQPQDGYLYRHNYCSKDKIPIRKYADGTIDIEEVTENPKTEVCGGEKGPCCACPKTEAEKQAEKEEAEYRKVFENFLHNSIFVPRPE
Chain of Insulin-like growth factor 1 receptor (P08069 741-1367 limits assumed): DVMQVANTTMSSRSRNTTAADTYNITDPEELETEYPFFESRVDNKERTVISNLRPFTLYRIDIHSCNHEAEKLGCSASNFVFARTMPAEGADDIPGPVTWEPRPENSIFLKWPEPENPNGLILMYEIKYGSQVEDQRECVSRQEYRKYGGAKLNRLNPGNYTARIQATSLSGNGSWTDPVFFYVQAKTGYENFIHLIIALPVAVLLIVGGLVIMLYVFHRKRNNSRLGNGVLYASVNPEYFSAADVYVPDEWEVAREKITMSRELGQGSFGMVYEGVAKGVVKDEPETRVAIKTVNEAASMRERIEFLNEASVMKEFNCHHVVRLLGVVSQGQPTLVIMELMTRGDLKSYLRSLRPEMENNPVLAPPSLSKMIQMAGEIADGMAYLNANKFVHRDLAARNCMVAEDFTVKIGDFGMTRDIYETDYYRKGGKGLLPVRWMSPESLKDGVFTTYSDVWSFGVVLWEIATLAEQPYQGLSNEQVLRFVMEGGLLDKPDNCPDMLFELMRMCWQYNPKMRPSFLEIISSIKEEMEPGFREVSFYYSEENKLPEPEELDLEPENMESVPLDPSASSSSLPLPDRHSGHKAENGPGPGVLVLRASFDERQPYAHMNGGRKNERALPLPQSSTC
Data set [8] has as its target Vascular endothelial growth factor receptor 2 (Homo sapiens, UniProt P35968). The experiment in a line: Inhibition of KDR (unknown origin).
A short description of data set [9]: Permeability of compound at >= pH 7 by PAMPA assay. Type of data set: ADME.
The nature of data set [10]: Solubility of compound in water. As to conditions: buffer; call rule not given here. Type of data set: physicochemical.
The target in a further data set is Cytochrome P450 3A4 (Homo sapiens, UniProt P08684). The experiment in a line: Effect on human CYP3A4 at 10 uM. Type of data set: ADME.
Data set [11] has as its target Tyrosine-protein kinase Lck (Homo sapiens, UniProt P06239). The data set can be described thus: Inhibition of Lck (unknown origin).
For data set [12], the target named is Proto-oncogene tyrosine-protein kinase receptor Ret (Homo sapiens, UniProt P07949). The data set can be described thus: Inhibition of Ret (unknown origin).
The next data set deals with Insulin receptor (Homo sapiens, UniProt P06213). The experiment in a line: Inhibition of Ins receptor (unknown origin).
The next data set deals with Cytochrome P450 2C9 (Homo sapiens, UniProt P11712). The experiment in a line: Effect on human CYP2C9 at 10 uM. Type of data set: ADME.
The target of the next data set is Cytochrome P450 2D6 (Homo sapiens, UniProt P10635). The experiment in a line: Effect on human CYP2D6 at 10 uM. Type of data set: ADME.
The target of a further data set is T1, Ephrin type-B receptor 4 (Homo sapiens, UniProt P54760).
T1 sequence (P54760 whole entry): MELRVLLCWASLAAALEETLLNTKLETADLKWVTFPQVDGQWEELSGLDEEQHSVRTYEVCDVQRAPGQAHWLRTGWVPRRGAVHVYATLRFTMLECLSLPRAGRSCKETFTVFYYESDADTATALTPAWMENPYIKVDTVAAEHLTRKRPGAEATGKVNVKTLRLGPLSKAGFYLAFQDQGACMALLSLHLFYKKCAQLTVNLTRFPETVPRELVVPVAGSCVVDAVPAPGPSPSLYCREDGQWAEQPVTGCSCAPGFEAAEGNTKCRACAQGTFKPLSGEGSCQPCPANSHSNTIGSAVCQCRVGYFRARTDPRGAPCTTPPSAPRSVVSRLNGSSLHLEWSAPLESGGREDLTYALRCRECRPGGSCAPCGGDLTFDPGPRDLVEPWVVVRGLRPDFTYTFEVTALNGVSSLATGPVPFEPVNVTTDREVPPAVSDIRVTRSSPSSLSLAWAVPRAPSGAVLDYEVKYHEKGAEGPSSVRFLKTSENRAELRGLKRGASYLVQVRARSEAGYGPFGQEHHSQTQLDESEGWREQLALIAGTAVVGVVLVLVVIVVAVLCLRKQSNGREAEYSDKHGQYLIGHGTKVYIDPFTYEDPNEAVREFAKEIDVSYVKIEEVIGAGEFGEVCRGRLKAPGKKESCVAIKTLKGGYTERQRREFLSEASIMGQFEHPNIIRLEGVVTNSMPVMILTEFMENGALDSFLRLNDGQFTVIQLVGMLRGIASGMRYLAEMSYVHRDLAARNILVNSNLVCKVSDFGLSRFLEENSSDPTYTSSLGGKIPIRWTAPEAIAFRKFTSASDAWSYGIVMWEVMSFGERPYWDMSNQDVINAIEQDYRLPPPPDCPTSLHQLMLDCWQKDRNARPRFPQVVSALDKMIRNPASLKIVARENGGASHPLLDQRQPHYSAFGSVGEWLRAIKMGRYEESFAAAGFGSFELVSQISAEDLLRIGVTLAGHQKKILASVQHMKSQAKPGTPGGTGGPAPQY
The data set can be described thus: Inhibition of EphB4 receptor (unknown origin).

For data set [13], the system named is Liver microsome. The experiment in a line: Drug level in human liver microsomes treated with NVP-AEW541 by LC-MS/MS analysis. Type of data set: ADME.

Bounds are passed on as bounds.

Chain of Phosphatidylinositol 4,5-bisphosphate 3-kinase catalytic subunit beta isoform (P42338 whole entry, canonical isoform): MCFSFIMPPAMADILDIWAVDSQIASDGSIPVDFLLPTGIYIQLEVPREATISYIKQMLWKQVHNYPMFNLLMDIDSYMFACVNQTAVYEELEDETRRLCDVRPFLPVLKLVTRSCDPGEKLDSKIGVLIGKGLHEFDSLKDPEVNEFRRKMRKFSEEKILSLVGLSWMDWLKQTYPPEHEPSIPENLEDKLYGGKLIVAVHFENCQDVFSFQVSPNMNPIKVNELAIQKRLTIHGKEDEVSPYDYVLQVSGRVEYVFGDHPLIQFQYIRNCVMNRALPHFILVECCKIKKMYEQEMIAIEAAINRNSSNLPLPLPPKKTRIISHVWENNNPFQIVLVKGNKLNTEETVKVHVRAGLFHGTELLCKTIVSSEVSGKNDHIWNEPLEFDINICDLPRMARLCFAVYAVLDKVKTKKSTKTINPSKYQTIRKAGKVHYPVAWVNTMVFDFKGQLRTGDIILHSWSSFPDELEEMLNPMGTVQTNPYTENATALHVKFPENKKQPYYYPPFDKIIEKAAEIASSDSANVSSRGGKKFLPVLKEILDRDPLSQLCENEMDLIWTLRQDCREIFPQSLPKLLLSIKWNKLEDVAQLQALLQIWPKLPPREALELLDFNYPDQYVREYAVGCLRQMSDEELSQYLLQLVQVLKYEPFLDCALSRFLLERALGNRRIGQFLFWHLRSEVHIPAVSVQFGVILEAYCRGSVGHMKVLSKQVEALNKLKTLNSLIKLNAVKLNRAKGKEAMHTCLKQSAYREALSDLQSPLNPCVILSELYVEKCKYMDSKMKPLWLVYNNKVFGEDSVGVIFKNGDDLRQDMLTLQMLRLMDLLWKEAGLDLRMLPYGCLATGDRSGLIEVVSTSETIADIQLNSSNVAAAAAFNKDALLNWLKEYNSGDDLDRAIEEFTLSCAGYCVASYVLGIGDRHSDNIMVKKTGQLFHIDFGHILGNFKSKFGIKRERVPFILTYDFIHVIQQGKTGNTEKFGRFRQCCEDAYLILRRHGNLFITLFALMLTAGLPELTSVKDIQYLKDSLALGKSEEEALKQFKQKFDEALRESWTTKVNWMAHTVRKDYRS
Chain of Tyrosine-protein kinase JAK1 (P23458 whole entry): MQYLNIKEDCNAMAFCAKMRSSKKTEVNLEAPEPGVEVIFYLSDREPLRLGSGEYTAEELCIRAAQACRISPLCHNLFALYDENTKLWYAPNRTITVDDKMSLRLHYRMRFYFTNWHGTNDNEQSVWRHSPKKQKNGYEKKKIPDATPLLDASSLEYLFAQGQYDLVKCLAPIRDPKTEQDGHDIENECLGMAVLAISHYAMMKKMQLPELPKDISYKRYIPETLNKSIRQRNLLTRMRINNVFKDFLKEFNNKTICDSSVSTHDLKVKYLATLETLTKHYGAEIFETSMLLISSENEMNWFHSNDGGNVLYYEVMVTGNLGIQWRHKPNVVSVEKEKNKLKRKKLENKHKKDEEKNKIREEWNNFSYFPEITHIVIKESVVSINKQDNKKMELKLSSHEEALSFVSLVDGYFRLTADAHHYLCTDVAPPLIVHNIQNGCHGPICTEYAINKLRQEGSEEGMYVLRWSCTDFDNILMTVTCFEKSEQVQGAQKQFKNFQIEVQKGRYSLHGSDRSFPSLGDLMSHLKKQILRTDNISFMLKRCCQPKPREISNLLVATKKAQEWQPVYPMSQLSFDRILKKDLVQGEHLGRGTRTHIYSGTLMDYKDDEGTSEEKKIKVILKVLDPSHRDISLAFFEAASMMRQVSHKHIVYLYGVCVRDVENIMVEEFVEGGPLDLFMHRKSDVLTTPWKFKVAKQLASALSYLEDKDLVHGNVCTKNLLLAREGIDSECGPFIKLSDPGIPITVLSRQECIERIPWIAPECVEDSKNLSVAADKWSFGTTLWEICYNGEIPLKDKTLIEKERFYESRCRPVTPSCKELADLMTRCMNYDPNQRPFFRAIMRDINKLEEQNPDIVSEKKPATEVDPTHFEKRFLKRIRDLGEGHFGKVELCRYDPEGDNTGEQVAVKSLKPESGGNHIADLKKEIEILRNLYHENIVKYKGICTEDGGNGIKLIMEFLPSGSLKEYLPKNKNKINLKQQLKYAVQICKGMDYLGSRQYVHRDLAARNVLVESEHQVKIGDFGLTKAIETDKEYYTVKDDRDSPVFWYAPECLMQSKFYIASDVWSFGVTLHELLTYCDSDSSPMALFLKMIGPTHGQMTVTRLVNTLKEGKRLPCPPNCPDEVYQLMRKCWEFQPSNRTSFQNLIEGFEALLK

Usually IC50 stands for the midpoint of a concentration-inhibition curve. Turning to `Nc1ncnc2c1c(-c1cccc(OCc3ccccc3)c1)cn2[C@H]1C[C@@H](CN2CCC2)C1`, the half-inhibitory concentration (IC50) was more than 9000 nM in [1]; more than 10000 nM in data set [2]; more than 10000 nM in data set [4]; more than 9000 nM in data set [5]; 130 nM in [6]. Besides, the Drug metabolism result in the data set with Liver microsome [3] is listed as “metabolite_detected”.
In data set [7], `Nc1ncnc2c1c(-c1cccc(OCCOC3CCCC3)c1)cn2[C@H]1C[C@@H](CN2CCC2)C1` gave an IC50 of 490 nM.
`CC1(C)CC[C@H](COc2cccc(-c3cn([C@H]4C[C@@H](CN5CCC5)C4)c4ncnc(N)c34)c2)O1` registered a half-inhibitory concentration (IC50) in data set [7] of 60 nM.
Same read-out and setting: as for `CCCOCCOc1cccc(-c2cn([C@H]3C[C@@H](CN4CCC4)C3)c3ncnc(N)c23)c1`, the figure is 310 nM; as for `CC(C)CCOCCOc1cccc(-c2cn([C@H]3C[C@@H](CN4CCC4)C3)c3ncnc(N)c23)c1`, 370 nM.
In the case of `Nc1ncnc2c1c(-c1cccc(OC[C@H]3CCCCO3)c1)cn2[C@H]1C[C@@H](CN2CCC2)C1`, the Drug metabolism result in the data set on Liver microsome [3] is “metabolite_notdetected”. This compound displayed a half-inhibitory concentration (IC50) in [7] of 80 nM.
`CC(C)OCCOc1cccc(-c2cn([C@H]3C[C@@H](CN4CCC4)C3)c3ncnc(N)c23)c1` came in with a half-maximal inhibitory concentration (IC50) in data set [7] of 260 nM.
On the same count and under the same terms, as for `Nc1ncnc2c1c(-c1cccc(OCC3CCCC3)c1)cn2[C@H]1C[C@@H](CN2CCC2)C1`, the figure is 840 nM.
Take `CC1(C)CC[C@@H](COc2cccc(-c3cn([C@H]4C[C@@H](CN5CCC5)C4)c4ncnc(N)c34)c2)O1`: the IC50 in [1] is more than 9000 nM; in data set [2], more than 10000 nM; in data set [8] it was more than 10000 nM; in [7], 9 nM; in [11], 7400 nM; in data set [12], 970 nM. For the same compound, the IC50 in data set [4] was more than 10000 nM; in [5] it was more than 9000 nM; against Insulin receptor, 100 nM; against Ephrin type-B receptor 4, 690 nM. Further, the permeability entry in data set [9] is listed as “permeable”. The solubility entry in data set [10] was “soluble”. Besides, the Activity entry on Cytochrome P450 3A4, on Cytochrome P450 2C9 and on Cytochrome P450 2D6 was “Not Active” in each case.
For `CC(C)(C)OCCOc1cccc(-c2cn([C@H]3C[C@@H](CN4CCC4)C3)c3ncnc(N)c23)c1`, in data set [7], the 50% inhibitory concentration (IC50) stood at 160 nM.
In turn, `CCOCCOc1cccc(-c2cn([C@H]3C[C@@H](CN4CCC4)C3)c3ncnc(N)c23)c1` came in with an IC50 in data set [7] of 630 nM.
The compound `Nc1ncnc2c1c(-c1cccc(OC[C@H]3CCCO3)c1)cn2[C@H]1C[C@@H](CN2CCC2)C1` gave an IC50 in [7] of 110 nM.
With `Nc1ncnc2c1c(-c1cccc(O)c1)cn2[C@H]1C[C@@H](CN2CCC2)C1`, the Drug metabolism entry in the data set on Liver microsome [13] is reported as “metabolite_detected”.
Turning to `Nc1ncnc2c1c(-c1cccc(OCC3CCC3)c1)cn2[C@H]1C[C@@H](CN2CCC2)C1`, the IC50 in [7] amounted to 1900 nM.
On the same count and under the same terms, the value for `Nc1ncnc2c1c(-c1cccc(OCC3CCCCC3)c1)cn2[C@H]1C[C@@H](CN2CCC2)C1` was 550 nM; that for `Nc1ncnc2c1c(-c1cccc(OCCO)c1)cn2[C@H]1C[C@@H](CN2CCC2)C1` was 7900 nM.
As to `COCCOc1cccc(-c2cn([C@H]3C[C@@H](CN4CCC4)C3)c3ncnc(N)c23)c1`, it took 2000 nM to reach half-maximal inhibition in data set [7] (IC50).
Regarding `Nc1ncnc2c1c(-c1cccc(OC[C@@H]3CCCO3)c1)cn2[C@H]1C[C@@H](CN2CCC2)C1`, the IC50 was more than 9000 nM in data set [1]; more than 10000 nM in data set [2]; 80 nM in [7]; more than 10000 nM in data set [4]; more than 9000 nM in [5]; 3600 nM in [6].
`Nc1ncnc2c1c(-c1cccc(OC[C@@H]3CCCCO3)c1)cn2[C@H]1C[C@@H](CN2CCC2)C1`: in data set [7], the IC50 was determined as 130 nM.
On the same count and under the same terms, as for `CC(Oc1cccc(-c2cn([C@H]3C[C@@H](CN4CCC4)C3)c3ncnc(N)c23)c1)c1ccccc1` (mixture of isomers), the figure is 3700 nM.
